From ChEMBL document CHEMBL2202954, “The effect of PLC-γ2 inhibitors on the growth of human tumour cells” (2012)

Assays:
Format in all cases: functional
SR = test: Cytotoxicity against human SR cells assessed as cellular growth at 10 uM by SRB assay
A549 = test: Cytotoxicity against human A549 cells assessed as cellular growth at 10 uM by SRB assay
MDA-MB-435 = test: Cytotoxicity against human MDA-MB-435 cells assessed as cellular growth at 10 uM by SRB assay
DU-145 = test: Cytotoxicity against human DU145 cells assessed as cellular growth at 10 uM by SRB assay
HL-60(TB) = test: Cytotoxicity against human HL-60(TB) cells assessed as cellular growth at 10 uM by SRB assay
IGROV-1 = test: Cytotoxicity against human IGROV1 cells assessed as cellular growth at 10 uM by SRB assay
Malme-3M = test: Cytotoxicity against human MALME-3M cells assessed as cellular growth at 10 uM by SRB assay
SW-620 = test: Cytotoxicity against human SW620 cells assessed as cellular growth at 10 uM by SRB assay
BT-549 = test: Cytotoxicity against human BT549 cells assessed as cellular growth at 10 uM by SRB assay
M14 = test: Cytotoxicity against human M14 cells assessed as cellular growth at 10 uM by SRB assay
OVCAR-5 = test: Cytotoxicity against human OVCAR5 cells assessed as cellular growth at 10 uM by SRB assay
COLO 205 = test: Cytotoxicity against human COLO205 cells assessed as cellular growth at 10 uM by SRB assay
NCI-H460 = test: Cytotoxicity against human NCI-H460 cells assessed as cellular growth at 10 uM by SRB assay
SF-295 = test: Cytotoxicity against human SF295 cells assessed as cellular growth at 10 uM by SRB assay
A498 = test: Cytotoxicity against human A498 cells assessed as cellular growth at 10 uM by SRB assay
K562 = test: Cytotoxicity against human K562 cells assessed as cellular growth at 10 uM by SRB assay
SN12C = test: Cytotoxicity against human SN12C cells assessed as cellular growth at 10 uM by SRB assay
CCRF-CEM = test: Cytotoxicity against human CCRF-CEM cells assessed as cellular growth at 10 uM by SRB assay
OVCAR-4 = test: Cytotoxicity against human OVCAR4 cells assessed as cellular growth at 10 uM by SRB assay

Cc1cc(C)c(NC(=O)c2sc3nc4c(cc3c2N)C(=O)CC(C)(C)C4)c(C)c1
Activity (SR): 103.93% | Activity (A549): 96.6% | Activity (MDA-MB-435): 97.97% | Activity (DU-145): 127.81% | Activity (HL-60(TB)): 108.84% | Activity (IGROV-1): 95.36% | Activity (Malme-3M): 92.73% | Activity (SW-620): 106.45% | Activity (BT-549): 109.43% | Activity (M14): 107.36% | Activity (OVCAR-5): 100.8% | Activity (COLO 205): 117% | Activity (NCI-H460): 102.63% | Activity (SF-295): 81.11% | Activity (A498): 89.84% | Activity (K562): 90.16% | Activity (SN12C): 103.6% | Activity (CCRF-CEM): 90.08%

O=c1/c(=C/c2ccccc2Cl)sc2nc(-c3ccccc3)nn12
Activity (SR): 45.36% | Activity (A549): 87.55% | Activity (MDA-MB-435): 78.08% | Activity (DU-145): 92.88% | Activity (HL-60(TB)): 66.88% | Activity (IGROV-1): 96.71% | Activity (Malme-3M): 92.95% | Activity (SW-620): 107.46% | Activity (BT-549): 91.77% | Activity (M14): 76.15% | Activity (OVCAR-5): 119.68% | Activity (COLO 205): 113.47% | Activity (NCI-H460): 99.8% | Activity (SF-295): 99.98% | Activity (K562): 48.93% | Activity (SN12C): 94.39% | Activity (CCRF-CEM): 56.07%

O=c1/c(=C/c2ccccc2)sc2nc(-c3ccc(Cl)cc3Cl)nn12
Activity (A549): 103.15% | Activity (MDA-MB-435): 119.04% | Activity (DU-145): 108.27% | Activity (IGROV-1): 102.56% | Activity (Malme-3M): 121.75% | Activity (SW-620): 101.67% | Activity (BT-549): 105.68% | Activity (M14): 103.86% | Activity (COLO 205): 123.34% | Activity (NCI-H460): 106.69% | Activity (SF-295): 123.35% | Activity (A498): 108.54% | Activity (K562): 99.39% | Activity (SN12C): 106.99% | Activity (CCRF-CEM): 105.93%

Cc1ccc(C(=O)/C=C2/Nc3ccc(C)cc3OC2=O)cc1
Activity (SR): 100.89% | Activity (A549): 105.68% | Activity (MDA-MB-435): 106.99% | Activity (DU-145): 118.59% | Activity (HL-60(TB)): 82.69% | Activity (IGROV-1): 115.36% | Activity (Malme-3M): 114.26% | Activity (OVCAR-4): 96.74% | Activity (SW-620): 120.18% | Activity (BT-549): 108.86% | Activity (M14): 106.88% | Activity (OVCAR-5): 120.4% | Activity (COLO 205): 120.49% | Activity (NCI-H460): 117.71% | Activity (SF-295): 132.37% | Activity (A498): 86.34% | Activity (K562): 95.07% | Activity (SN12C): 96.84% | Activity (CCRF-CEM): 77.12%

Cc1ccc2c(c1)N/C(=C/C(=O)c1ccc(Cl)cc1)C(=O)O2
Activity (SR): 110.86% | Activity (A549): 92.75% | Activity (MDA-MB-435): 105.53% | Activity (DU-145): 112.1% | Activity (HL-60(TB)): 97.02% | Activity (IGROV-1): 136.06% | Activity (Malme-3M): 99.95% | Activity (OVCAR-4): 88.88% | Activity (SW-620): 114.93% | Activity (BT-549): 109.64% | Activity (M14): 108.88% | Activity (OVCAR-5): 106.86% | Activity (COLO 205): 118.18% | Activity (NCI-H460): 109.79% | Activity (SF-295): 113.06% | Activity (K562): 99.7% | Activity (SN12C): 93.53% | Activity (CCRF-CEM): 65.56%

Cc1ccc(C2=N/C(=C\c3ccccc3)C(=O)O2)cc1
Activity (SR): 88.58% | Activity (A549): 107.01% | Activity (MDA-MB-435): 102.12% | Activity (DU-145): 106.2% | Activity (HL-60(TB)): 95.82% | Activity (Malme-3M): 105.62% | Activity (OVCAR-4): 108.84% | Activity (SW-620): 102.61% | Activity (BT-549): 103.91% | Activity (M14): 108.05% | Activity (OVCAR-5): 95.31% | Activity (COLO 205): 122.06% | Activity (NCI-H460): 109.3% | Activity (K562): 106.22% | Activity (SN12C): 98.61% | Activity (CCRF-CEM): 94.95%

O=C(NCc1ccc(Cl)cc1)c1[nH]c2ccccc2c1Cl
Activity (A549): 94.27% | Activity (MDA-MB-435): 103.29% | Activity (DU-145): 105.86% | Activity (HL-60(TB)): 109.59% | Activity (IGROV-1): 106.79% | Activity (Malme-3M): 98.93% | Activity (OVCAR-4): 100.82% | Activity (SW-620): 98.38% | Activity (BT-549): 104.79% | Activity (M14): 117.92% | Activity (OVCAR-5): 116.56% | Activity (COLO 205): 104.86% | Activity (NCI-H460): 99.81% | Activity (SF-295): 94.4% | Activity (A498): 76.55% | Activity (K562): 102.78% | Activity (SN12C): 99.33% | Activity (CCRF-CEM): 93.68%

Cc1cccc(-c2nc(-c3cccs3)no2)c1
Activity (SR): 93.72% | Activity (A549): 100.01% | Activity (MDA-MB-435): 110.16% | Activity (DU-145): 120% | Activity (HL-60(TB)): 96% | Activity (IGROV-1): 61.64% | Activity (Malme-3M): 112.31% | Activity (SW-620): 90.68% | Activity (BT-549): 88.13% | Activity (M14): 102.43% | Activity (COLO 205): 111.56% | Activity (NCI-H460): 94.9% | Activity (SF-295): 91.28% | Activity (A498): 82.09% | Activity (K562): 94.59% | Activity (CCRF-CEM): 91.12%

Clc1ccc(-c2nc(-c3cccs3)no2)cc1
Activity (SR): 85.71% | Activity (A549): 94.07% | Activity (MDA-MB-435): 111.2% | Activity (DU-145): 119.78% | Activity (HL-60(TB)): 98.45% | Activity (OVCAR-4): 65.77% | Activity (SW-620): 105.71% | Activity (BT-549): 111.04% | Activity (M14): 105.16% | Activity (OVCAR-5): 108.26% | Activity (COLO 205): 113.89% | Activity (NCI-H460): 110.35% | Activity (SF-295): 92.23% | Activity (A498): 93.08% | Activity (K562): 101.77% | Activity (SN12C): 97.08% | Activity (CCRF-CEM): 78.29%
